Laboratory results taken from article PMC6290777, “Inhalation of the prodrug PI3K inhibitor CL27c improves lung function in asthma and fibrosis” (Nature Communications, 2018).

What was measured:
[1] = test system: Akt phosphorylation (Ser473) in lung, heart, liver; experiment: Insulin stimulation analysis in liver, heart, and lung (pAkt); type: in vivo, mice; conditions: inhaled CL27c 2 mg/ml 30 min; insulin 1 UI/kg i.p.
Description: Animals were fasted overnight and, the day after, they were treated for 30 min with aerosolized CL27c (2 mg/ml in 0.5 % tylaxopol/saline solution). After 1 h from the CL27c treatment mice were administrated with insulin (1.0 UI kg^−1 diluted in PBS solution, Actrapid, Novo Nordisk, i.p. injection). Ten min after injection, the animals where sacrificed and tissues removed, frozen in liquid nitrogen, and homogenized in lysis buffer (50 mM Tris-HCl, pH = 8, 150 mM NaCl, 1% Triton X-100) supplemented with 50 mM NaF, 2 mM sodium orthovanadate, 1 mM sodium pyro-phosphate, and protease inhibitor cocktail (Roche).
Lung, liver, and heart samples were collected for western blot detection of akt phosphorilation levels. Protein samples were resolved by 10% SDS-PAGE and transferred on to PVDF (Immobilon™-P) membranes. The membranes were blocked with 5% BSA in 1x TBS with 0.3% Tween 20 for 30 min at […]. Then, the membranes were incubated overnight at 4 °C with primary antibodies (phosphorylated Akt serine 473, 1:1000, Cell Signaling Technology, Cat. Number 4060) and 1 h with HRP-conjugated secondary antibody (1:10000). […] For quantification, specific phosphorylation was calculated as the ratio of signals for phosphorylated Akt to the signal of total Akt detected. […]

[2] = test system: human lung fibroblasts (HLF); experiment: Cell survival of human lung fibroblasts (CellTiter-Glo); type: cell-based; conditions: TGF-β 10 ng/ml, 48 hours; CL27c 1 and 10 µM
Description: Human lung fibroblast cell culture
Two separate human lung fibroblast cell lines isolated from IPF patients were used: LL97a derived from a person (ATCC, Manassas, USA) and DHLF-IPF (#CC-7231, Lonza, Switzerland). Control cell lines were CCD-16Lu, obtained from a person that died of astrocytoma –a disease unrelated to IPF - (ATCC) and NHLF (#CC-2512; Lonza). LL97a and CCD-16Lu cells were cultured in Dulbecco's modified Eagles medium (DMEM, Sigma Aldrich, Dorset, UK). Media was supplemented with penicillin/streptomycin (100 U/ml, Thermo-Fischer, Germany) and 10% fetal bovine serum (FBS, Thermo-Fischer, Germany). Cells from Lonza were cultured in the FGMTM (#CC-3132, Lonza). […]
Caliper based assay, the reaction was terminated by addition of EDTA buffer. Substrate and product were separated and quantified electrophoretically using the microfluidic-based and the assay plate was read on Caliper LabChip 3000 Drug Discovery System from Caliper Life Sciences (Walthan, MA, USA). ADP Glo was another method of detection used for some kinase assays where data was obtained by quantifying the intensity of luminescence. For ADP Glo based assay, the reaction was terminated by applying the Promega ADP Glo Kinase Assay kit and the assay plate was read on a LJL Biosystems Analyst HT. […]

[3] = Glycemia and insulin challenge after inhaled CL27c; type: in vivo, mice; conditions: N.S. vs vehicle
Description: To define whether this prodrug was suitable for inhaled administration, CL27c was studied to evaluate selected ADME (absorption, distribution, metabolism, and excretion) and pharmacokinetic properties. First, stability of CL27c and CL27e was analyzed in mouse plasma (Supplementary Table 1) and in mouse, rat, and human liver microsomes in the presence of nicotinamide adenine dinucleotide phosphate (NADPH; Supplementary Table 2). Next, clearance of CL27c was analyzed in C57BL/6J mice after either intra-venous or oral administration. […] Clearance of CL27c and CL27e after oral administration could not be determined due to their low bioavailability (Supplementary Table 3). Next, pharmacokinetics after inhalation was studied in C57BL/6J mice after delivering an aerosolized micro-suspension of CL27c. As shown in Table 1 and Supplementary Fig. 1b, CL27c dose-dependently reached the lungs and its metabolite CL27e was detectable after inhalation of the highest dose. […] Therefore, the inhaled prodrug promotes local effects but prevents systemic absorption of pharmacologically relevant amounts of the active compound.
Animals were fasted overnight and, the day after, they were treated for 30 min with aerosolized CL27c (2 mg/ml in 0.5 % tylaxopol/saline solution). […]

## COC(=O)c1cccc(Cn2cc(-c3cccc4c(=O)cc(N5CCOCC5)[nH]c34)nn2)c1 [CL27c]
[1]
  insulin-evoked Akt phosphorylation (Ser473) in lungs: did not show elevation of protein kinase B (Akt) phosphorylation
  insulin-evoked Akt phosphorylation in heart or liver: insulin was able to normally increase Akt phosphorylation
[2]
  survival of HLF lines: reduced survival at 1 and 10 µM
[3]
  drop in glycemia 10 min after an insulin challenge: 17.45 ± 3.00 % drop
  glycemia: 213.0 ± 5.6 mg/dL
